# Key:
# [1] = target: T1, PltM (Pseudomonas protegens, UniProt Q4KCZ3); assay: Optimized in vitro PltM halogenation assay (PltM, SsuE, GDH), overnight overall yield by HPLC; type: biochemical; conditions: optimized in vitro conditions
# Description: To increase production of halogenated molecules and decrease the amount of NADPH required, the above in vitro assay was optimized by using an additional enzyme, glucose dehydrogenase (GDH). […] The overall yield of halogenation products was determined for reactions run overnight for several substrates (Table 8). Conversion of the substrate to halogenated products was monitored by HPLC at λ=275-320 nm, where the absorbance of molecules is not affected by halogenation, and quantified as fraction of reaction species (%).
# The time course experiments were performed in duplicate. Compound 1 was unstable under these optimized conditions, and it was not tested. The in vitro analysis of K87A mutant was performed overnight in 100 μL reaction mixture by using the compound 11 as a substrate. Wild-type PltM was used as a positive control, and no enzyme reaction was used as a negative control. In all above reactions, the compounds were extracted with EtOAc (4×100 μL) and dried under gentle air flow.
# The halogenation reaction products were analyzed by HPLC or LC-MS by injecting 10 μL of each sample. The compounds were separated by Reversed-phase HPLC at the flow rate of 0.2 mL/min by using the following program: eluent A=H2O; eluent B=MeCN; gradient=2% B for 5 min, increase to 100% B over a 30 min period, stay at 100% B for 9 min, decrease to 2% B over a 1 min period, and re-equilibrate the column at 2% B for 30 min.
# For HPLC analysis, the molecules were observed by absorbance at λ=275 nm as described above. As necessary, the following mass spectrometer was operated in negative and positive modes with the following parameters: For negative mode, mass range, 80-600 m/z in profile mode; temperature, 550° C. and ion spray voltage floating, −4500 V, and for positive mode, mass range, 80-600 m/z in profile mode; temperature, 550° C. and ion spray voltage floating, 4500 V. The presence of each compound was analyzed by extracted ion chromatograph (XIC) with the expected mass ±0.05 Da for Assay 1 and Assay 2 and ±0.005 Da for Assay 3 (FIGS. 2A-C, 8-13, and 17-37; Tables 3-4 and 7).
# [2] = target: T1, PltM; assay: X-ray crystallography of PltM crystals soaked with FAD and substrates; conditions: crystals soaked with 0.5 mM FAD and substrate
# Description: PltM crystals were obtained by the hanging drop method with drops containing 0.5 μL of PltM (40 mg/mL) and 0.5 μL of the reservoir solution (0.1 M Tris pH 8, 0.2 M NaCl, 0.1 M CaCl2) and 12-17% PEG 8000). The drops were equilibrated against 0.5 mL of reservoir solution at 21° C. Long rod-shaped crystals appeared after 1-3 days. The crystals were cryoprotected by a gradual transfer to the solution with the same composition as the reservoir solution, additionally containing 20% glycerol. The crystals were then frozen by a rapid immersion into liquid nitrogen.
# However, PltM contains eight Cys residues, which, if accessible, would react with Hg salts. […] The structure was determined by the single anomalous dispersion (SAD) method from the EMP derivative data set (using the wavelength of 1.0 Å), as follows. […] This Hg substructure was used as an input in Autosolve in PHENIX suite to obtain initial phases, which were bootstrapped by difference Fourier analysis to yield the total of 33 Hg atoms and a readily interpretable electron density map, with the figure of merit of 0.71 after density modification. […]
# PltM crystals were soaked in the reservoir solution used to obtained native PltM crystals, with additional 0.5 mM of FAD. […] FAD was readily discernable in the omit Fo-Fc map. […]
# T1 sequence (Q4KCZ3 entry or part of it): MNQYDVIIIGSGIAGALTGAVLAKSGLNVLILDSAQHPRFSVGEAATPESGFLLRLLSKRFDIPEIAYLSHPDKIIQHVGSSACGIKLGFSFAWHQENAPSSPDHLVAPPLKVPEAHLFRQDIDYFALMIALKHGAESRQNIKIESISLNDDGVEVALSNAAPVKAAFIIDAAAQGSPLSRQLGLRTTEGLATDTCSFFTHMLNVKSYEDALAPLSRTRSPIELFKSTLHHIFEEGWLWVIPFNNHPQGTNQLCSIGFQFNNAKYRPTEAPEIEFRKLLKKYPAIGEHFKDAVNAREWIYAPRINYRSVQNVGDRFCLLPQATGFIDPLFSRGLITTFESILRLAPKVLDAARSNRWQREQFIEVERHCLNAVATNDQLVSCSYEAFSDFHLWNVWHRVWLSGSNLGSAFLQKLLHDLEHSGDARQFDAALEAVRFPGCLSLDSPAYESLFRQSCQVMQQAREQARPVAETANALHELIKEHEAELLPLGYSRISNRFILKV
smiles,measurement,setting,value
"Oc1cc(O)cc(O)c1 [Compound 1, phloroglucinol]",stability under optimized reaction conditions,[1],unstable
same,omit Fo-Fc electron density of substrate in soaked PltM crystals,[2],yielded omit Fo-Fc electron density
